Test results reported in patent US11566007B2, “Ras inhibitors” (Revolution Medicines, Inc., priority 2019, dated 2023).

Experiments:
NCI-H358 (K-Ras G12C) = test: CellTiter-Glo cell viability assay, NCI-H358; assay type: cell-based, human; details: Homo sapiens, NCI-H358, 120 h, NCI-H358, 5-day treatment; class symbols; read-out: Additional H358 Cell Viability assay data (K-Ras G12C, IC50)
Procedure, shortened: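 Cells seeded, compound added directly, 5-day exposure. Plates to RT ~30 min, CellTiter-Glo luminescence read. Normalized to DMSO avg (x100); 4-parameter logistic fit.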

[1] = test system: NCI-H358 cells (K-Ras G12C); test: Potency assay: pERK in NCI-H358 cells; assay type: cell-based, human; details: Homo sapiens, NCI-H358; H358 KRAS G12C; read-out: pERK EC50
Procedure, shortened: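 pERK decrease read by AlphaLISA SureFire p-ERK1/2 or In-Cell Western after 4 h compound exposure at 37 °C, 5% CO2.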

Row | Compound | IC50 (NCI-H358 (K-Ras G12C)) | EC50 [1]
1 | CCn1c(-c2cccnc2COC)c2c3cc(ccc31)-c1cc(O)cc(c1)C[C@H](NC(=O)[C@H](C(C)C)N(C)C(=O)c1ccc(NC(=O)/C=C/CN(C)C)cn1)C(=O)N1CCC[C@H](N1)C(=O)OCC(C)(C)C2 [Example A67, (2E)-4-(dimethylamino)-N-(6-{[(1S)-1-{[(8S,14S)-22-ethyl-4-hydroxy-21-[2-(methoxymethyl)pyridin-3-yl]-18,18-dimethyl-9,15-dioxo-16-oxa-10,22,28-triazapentacyclo[18.5.2.1^2,^6.1^10,^14.0^23,^27]nonacosa-1(26),2,4,6(29),20,23(27),24-heptaen-8-yl]carbamoyl}-2-methylpropyl](methyl)carbamoyl}pyridin-3-yl)but-2-enamide] | 100 to 1000 nM | < 5000 nM
2 | C=CC(=O)N1CC[C@@]2(CCN([C@H](C(=O)N[C@H]3Cc4cc(O)cc(c4)-c4ccc5c(c4)c(c(-c4ccccc4CCOC)n5CC)CC(C)(C)COC(=O)[C@@H]4CCCN(N4)C3=O)C(C)C)C2=O)C1 [Example A68] | 100 to 1000 nM | < 5000 nM
3 | C=CS(=O)(=O)N1CC[C@H](C(=O)N(C)[C@H](C(=O)N[C@H]2Cc3cc(O)cc(c3)-c3ccc4c(c3)c(c(-c3cccnc3COC)n4CC)CC(C)(C)COC(=O)[C@@H]3CCCN(N3)C2=O)C(C)C)C1 [Example A69] | 10 to 100 nM | < 5000 nM
4 | C=CC(=O)N1CC(C(=O)N(C)[C@H](C(=O)N[C@H]2Cc3cc(O)cc(c3)-c3ccc4c(c3)c(c(-c3cccnc3COC)n4CC)CC(C)(C)COC(=O)[C@@H]3CCCN(N3)C2=O)C(C)C)C1 [Example A70] | 10 to 100 nM | < 5000 nM
5 | CCn1c(-c2cccnc2COC)c2c3cc(ccc31)-c1cc(O)cc(c1)C[C@H](NC(=O)[C@H](C(C)C)N(C)C(=O)C1CN(C(=O)/C=C/CN(C)C)C1)C(=O)N1CCC[C@H](N1)C(=O)OCC(C)(C)C2 [Example A71, (2S)-2-(1-{1-[(2E)-4-(dimethylamino)but-2-enoyl]azetidin-3-yl}-N-methylformamido)-N-[(8S,14S)-22-ethyl-4-hydroxy-21-[2-(methoxymethyl)pyridin-3-yl]-18,18-dimethyl-9,15-dioxo-16-oxa-10,22,28-triazapentacyclo[18.5.2.1^2,^6.1^10,^14.0^23,^27]nonacosa-1(26),2,4,6(29),20,23(27),24-heptaen-8-yl]-3-methylbutanamide] | 100 to 1000 nM | < 5000 nM
6 | C=CC(=O)N1CC[C@H](C(=O)N(C)[C@H](C(=O)N[C@H]2Cc3cc(O)cc(c3)-c3ccc4c(c3)c(c(-c3cncc(CN(C)C)c3)n4CC)CC(C)(C)COC(=O)[C@@H]3CCCN(N3)C2=O)C(C)C)C1 [Example A73] | 10 to 100 nM | < 5000 nM
7 | C=CC(=O)N1CC[C@H](C(=O)N(C)[C@H](C(=O)N[C@H]2Cc3cc(O)cc(c3)-c3ccc4c(c3)c(c(-c3cnccc3C)n4CC)CC(C)(C)COC(=O)[C@@H]3CCCN(N3)C2=O)C(C)C)C1 [Example A77] | 10 to 100 nM | < 5000 nM
8 | CCn1c(-c2ccccc2COC)c2c3cc(ccc31)-c1cc(O)cc(c1)C[C@H](NC(=O)[C@H](C(C)C)N(C)C(=O)[C@H]1CCN(C(=O)/C=C/CN(C)C)C1)C(=O)N1CCC[C@H](N1)C(=O)OCC(C)(C)C2 [Example A79] | 10 to 100 nM | < 5000 nM
9 | C=CC(=O)N1CC[C@H](C(=O)N(C)[C@H](C(=O)N[C@H]2Cc3cc(O)cc(c3)-c3ccc4c(c3)c(c(-c3c(CCOC)cccc3OC)n4CC)CC(C)(C)COC(=O)[C@@H]3CCCN(N3)C2=O)C(C)C)C1 [Example A80] | 100 to 1000 nM | < 5000 nM
10 | C=CC(=O)N1CC[C@H](C(=O)N(C)[C@H](C(=O)N[C@H]2Cc3cc(O)cc(c3)-c3ccc4c(c3)c(c(-c3cc(F)cnc3COC)n4CC)CC(C)(C)COC(=O)[C@@H]3CCCN(N3)C2=O)C(C)C)C1 [Example A82] | 10 to 100 nM | < 5000 nM
11 | C=CC(=O)N1CC[C@H](C(=O)N(C)[C@H](C(=O)N[C@H]2Cc3cc(O)cc(c3)-c3ccc4c(c3)c(c(-c3cncc(COC)c3)n4CC)CC(C)(C)COC(=O)[C@@H]3CCCN(N3)C2=O)C(C)C)C1 [Example A83] | 10 to 100 nM | < 5000 nM
12 | C=CC(=O)N1CC[C@H](C(=O)N(C)[C@H](C(=O)N[C@H]2Cc3cc(O)cc(c3)-c3ccc4c(c3)c(c(-c3cnccc3COC)n4CC)CC(C)(C)COC(=O)[C@@H]3CCCN(N3)C2=O)C(C)C)C1 [Example A91] | < 10 nM | < 5000 nM

Now from value to compound:

Row | IC50 (NCI-H358 (K-Ras G12C)) | EC50 [1] | Compound
13 | 100 to 1000 nM | < 5000 nM | C=CC(=O)N1CC[C@H](C(=O)N(C)[C@H](C(=O)N[C@H]2Cc3cc(O)cc(c3)-c3ccc4c(c3)c(c(-c3ncccc3COC)n4CC)CC(C)(C)COC(=O)[C@@H]3CCCN(N3)C2=O)C(C)C)C1 [Example A84]
14 | 100 to 1000 nM | < 5000 nM | C=CC(=O)N1CC[C@H](C(=O)N(C)[C@H](C(=O)N[C@H]2Cc3cc(O)cc(c3)-c3ccc4c(c3)c(c(-c3nccnc3COC)n4CC)CC(C)(C)COC(=O)[C@@H]3CCCN(N3)C2=O)C(C)C)C1 [Example A85]
15 | 10 to 100 nM | < 5000 nM | C=CC(=O)N1CC[C@H](C(=O)N(C)[C@H](C(=O)N[C@H]2Cc3cc(O)cc(c3)-c3ccc4c(c3)c(c(-c3ccncc3)n4C(C)(C)C#N)CC(C)(C)COC(=O)[C@@H]3CCCN(N3)C2=O)C(C)C)C1 [Example A86]
16 | 10 to 100 nM | < 5000 nM | CCn1c(-c2cnccc2COC)c2c3cc(ccc31)-c1cc(O)cc(c1)C[C@H](NC(=O)[C@H](C(C)C)N(C)C(=O)[C@H]1CCN(C(=O)/C=C/CN(C)C)C1)C(=O)N1CCC[C@H](N1)C(=O)OCC(C)(C)C2 [Example A87]
17 | 10 to 100 nM | < 5000 nM | C=CC(=O)N1CC[C@H](C(=O)N(C)[C@H](C(=O)N[C@H]2Cc3cc(O)cc(c3)-c3ccc4c(c3)c(c(-c3ccc(N5CCN(C)CC5)nc3)n4CC)CC(C)(C)COC(=O)[C@@H]3CCCN(N3)C2=O)C(C)C)C1 [Example A89, (2S)-N-[(8S,14S)-22-ethyl-4-hydroxy-18,18-dimethyl-21-[6-(4-methylpiperazin-1-yl)pyridin-3-yl]-9,15-dioxo-16-oxa-10,22,28-triazapentacyclo[18.5.2.1^2,^6.1^10,^14.0^23,^27]nonacosa-1(26),2,4,6(29),20,23(27),24-heptaen-8-yl]-3-methyl-2-{N-methyl-1-[(3S)-1-(prop-2-enoyl)pyrrolidin-3-yl]formamido}butanamide]
18 | 100 to 1000 nM | < 5000 nM | C=CC(=O)N1CC[C@H](C(=O)N(C)[C@H](C(=O)N[C@H]2Cc3cc(O)cc(c3)-c3ccc4c(c3)c(c(-c3cccnc3CN(C)C)n4CC)CC(C)(C)COC(=O)[C@@H]3CCCN(N3)C2=O)C(C)C)C1 [Example A92]
19 | 10 to 100 nM | < 5000 nM | C=CC(=O)N1CC[C@H](C(=O)N(C)[C@H](C(=O)N[C@H]2Cc3cc(O)cc(c3)-c3ccc4c(c3)c(c(-c3cccnc3COC)n4CC#N)CC(C)(C)COC(=O)[C@@H]3CCCN(N3)C2=O)C(C)C)C1 [Example A93]
20 | 10 to 100 nM | < 5000 nM | C=CC(=O)N1CC[C@H](C(=O)N(C)[C@H](C(=O)N[C@H]2Cc3nc(cs3)-c3ccc4c(c3)c(c(-c3cccnc3COC)n4CC)CC(C)(C)COC(=O)[C@@H]3CCCN(N3)C2=O)C(C)C)C1 [Example A94]
